Experimental data reported in patent publication US11866439B2, “Ion channel modulators” (Praxis Precision Medicines, Inc., priority 2018, dated 2024).

Key:
Type in all cases: cell-based
hNaV1.1-WT = target: T1, hNaV1.1-WT (Homo sapiens, UniProt P35498); experiment: Voltage step activated (peak) sodium current, PatchXpress, hNaV1.1-WT; conditions: HEK293, HEK-293, steps to 0 mV from half-inactivation holding potential, read-out: hNav1.1 Peak INa (percent inhibition)
T1 construct: expressed in transfected cells; host or cells: HEK-293
Protocol: (§1) Functional characterization of exemplary compounds to modulate INa expressed by various human isoforms and disease-causing mutant voltage-gated sodium channels was accomplished using the PatchXpress high throughput electrophysiology platform (Molecular Devices, Sunnyvale, CA). HEK-293 cells expressing a recombinant, human NaV1.X sodium channel (either hNaV1.6-WT, hNaV1.6-R223G, hNaV1.6-N984K, hNaV1.6-N1768D, hNaV1.1-WT, hNaV1.2-WT, hNaV1.5-WT, hNaV1.7-WT, or hNaV1.8-WT) were grown in DMEM/high-glucose Dulbecco's modified, 10% FBS, 2 mM sodium pyruvate, 10 mM HEPES and 400 μg/mL G418. Cells were grown to 50%-80% confluency prior to harvesting. Trypsinized cells were washed, allowed to recover for 1 hour and then resuspended in extracellular recording solution at a concentration of 1×10^6 cells/ml. The onboard liquid handling facility of the PatchXpress was used for dispensing cells and applying test compounds. INa amplitude and stability were determined by analyzing the peak current amplitude.
(§2) Peak INa was evoked by depolarizing steps to 0 mV for 20 ms from a holding potential which evoked half-inactivation (e.g., −60 mV) at a frequency of 0.1 Hz. The voltage of half-inactivation was determined for each cell using a 5 sec prepulse to membrane potentials between −120 mV and −20 mV followed immediately by a voltage step to a fully activating membrane voltage (e.g., 0 mV). Following steady state block with exemplary compounds (e.g., as described herein), the degree of inhibition was measured using the average of three consecutive voltage steps. Percent steady-state inhibition of INa was calculated as: [(INa_compound)/(INa_control)]*100, where INa_compound and INa_control represent INa recorded in the presence or absence of compound, respectively.
(§3) In this table, “A” indicates inhibition between less than 0% to 50% and “B” indicates inhibition of greater than 50% and N/A indicates the compound was not tested.

hNaV1.2-WT = target: T2, hNaV1.2-WT (Homo sapiens, UniProt Q99250); experiment: Voltage step activated (peak) sodium current, PatchXpress, hNaV1.2-WT; conditions: HEK293, HEK-293, steps to 0 mV from half-inactivation holding potential, read-out: hNav1.2 Peak INa (percent inhibition)
T2 construct: expressed in transfected cells; host or cells: HEK-293
Protocol: as §1, §2, §3

human NaV1.6 (hNaV1.6) = target: T3, human NaV1.6 (hNaV1.6) (Homo sapiens, UniProt Q9UQD0); experiment: Late sodium current (INaL) inhibition, PatchXpress electrophysiology, hNaV1.6; conditions: 1 μM; HEK-293 cells expressing hNaV1.6; late current evoked by 300 nM ATX-II
T3 construct: expressed in transfected cells; host or cells: HEK-293
Protocol: HEK-293 cells expressing recombinant, human NaV1.6 (hNaV1.6) were grown in DMEM/high-glucose Dulbecco's modified, 10% FBS, 2 mM sodium pyruvate, 10 mM HEPES and 400 μg/mL G418. Cells were grown to 50%-80% confluency prior to harvesting. […] The onboard liquid handling facility of the PatchXpress was used for dispensing cells and applying test compounds. […] INaL was evoked by depolarizing pulses to 0 mV for 200 ms from a non-inactivating holding potential (e.g., −120 mV) at a frequency of 0.1 Hz. INaL amplitude and stability were determined by analyzing the mean current amplitude over the final 20 ms of the test pulse. […] Percent steady-state inhibition of INaL was calculated as: [(INaL_compound)/(INaL_control)]*100, where INaL_compound and INaL_control represent INaL recorded in the presence or absence of compound, respectively.

T2 sequence (Q99250 whole entry): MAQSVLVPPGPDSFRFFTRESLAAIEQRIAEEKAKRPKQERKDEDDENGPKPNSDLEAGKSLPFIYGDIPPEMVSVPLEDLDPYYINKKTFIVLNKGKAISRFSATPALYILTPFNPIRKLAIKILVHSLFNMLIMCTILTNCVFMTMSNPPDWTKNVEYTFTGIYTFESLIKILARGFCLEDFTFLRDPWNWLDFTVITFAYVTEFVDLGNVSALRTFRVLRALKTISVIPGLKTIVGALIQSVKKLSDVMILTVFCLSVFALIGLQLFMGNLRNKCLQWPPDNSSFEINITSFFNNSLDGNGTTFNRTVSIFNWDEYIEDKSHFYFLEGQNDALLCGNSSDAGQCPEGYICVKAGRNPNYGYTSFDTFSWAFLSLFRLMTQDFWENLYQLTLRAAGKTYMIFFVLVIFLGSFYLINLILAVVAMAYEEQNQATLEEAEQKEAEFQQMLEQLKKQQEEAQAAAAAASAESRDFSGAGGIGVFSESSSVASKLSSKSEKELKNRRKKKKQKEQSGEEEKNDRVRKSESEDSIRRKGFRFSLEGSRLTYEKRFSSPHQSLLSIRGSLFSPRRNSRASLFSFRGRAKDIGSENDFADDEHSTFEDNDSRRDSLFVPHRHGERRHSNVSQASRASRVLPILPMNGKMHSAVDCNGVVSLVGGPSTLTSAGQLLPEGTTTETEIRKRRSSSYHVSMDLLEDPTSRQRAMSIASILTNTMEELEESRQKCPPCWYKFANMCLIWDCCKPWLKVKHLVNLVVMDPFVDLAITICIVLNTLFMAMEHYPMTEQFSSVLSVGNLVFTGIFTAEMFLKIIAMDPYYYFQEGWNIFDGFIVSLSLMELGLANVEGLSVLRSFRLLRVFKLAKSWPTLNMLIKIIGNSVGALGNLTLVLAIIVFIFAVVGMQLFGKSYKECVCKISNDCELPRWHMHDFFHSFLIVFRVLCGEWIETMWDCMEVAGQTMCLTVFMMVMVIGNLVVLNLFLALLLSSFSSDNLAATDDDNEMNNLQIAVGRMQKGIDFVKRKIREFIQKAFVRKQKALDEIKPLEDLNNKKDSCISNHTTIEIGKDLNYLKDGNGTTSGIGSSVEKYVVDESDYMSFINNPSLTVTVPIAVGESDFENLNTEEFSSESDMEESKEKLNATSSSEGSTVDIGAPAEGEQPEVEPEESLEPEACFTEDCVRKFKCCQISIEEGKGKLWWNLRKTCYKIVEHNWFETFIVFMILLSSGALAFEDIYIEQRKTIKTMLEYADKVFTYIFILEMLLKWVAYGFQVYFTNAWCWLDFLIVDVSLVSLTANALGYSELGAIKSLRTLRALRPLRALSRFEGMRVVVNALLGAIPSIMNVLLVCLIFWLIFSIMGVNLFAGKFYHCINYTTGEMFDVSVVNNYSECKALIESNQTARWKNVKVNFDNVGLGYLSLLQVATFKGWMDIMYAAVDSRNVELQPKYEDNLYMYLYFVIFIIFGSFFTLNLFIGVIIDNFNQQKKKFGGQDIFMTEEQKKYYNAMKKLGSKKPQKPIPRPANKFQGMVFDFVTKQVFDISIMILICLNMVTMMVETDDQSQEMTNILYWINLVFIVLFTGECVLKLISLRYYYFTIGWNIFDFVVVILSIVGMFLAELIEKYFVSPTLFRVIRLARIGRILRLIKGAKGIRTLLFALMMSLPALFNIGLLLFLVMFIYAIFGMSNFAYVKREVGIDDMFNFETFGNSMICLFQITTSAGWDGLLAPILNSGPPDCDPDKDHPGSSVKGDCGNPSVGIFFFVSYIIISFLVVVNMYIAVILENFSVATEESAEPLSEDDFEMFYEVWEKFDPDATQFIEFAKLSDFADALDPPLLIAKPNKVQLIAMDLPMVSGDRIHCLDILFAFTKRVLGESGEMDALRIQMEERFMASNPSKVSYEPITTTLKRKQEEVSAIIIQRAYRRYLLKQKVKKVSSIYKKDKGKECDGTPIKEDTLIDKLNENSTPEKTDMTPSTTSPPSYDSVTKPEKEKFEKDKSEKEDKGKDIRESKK
T3 sequence (Q9UQD0 whole entry): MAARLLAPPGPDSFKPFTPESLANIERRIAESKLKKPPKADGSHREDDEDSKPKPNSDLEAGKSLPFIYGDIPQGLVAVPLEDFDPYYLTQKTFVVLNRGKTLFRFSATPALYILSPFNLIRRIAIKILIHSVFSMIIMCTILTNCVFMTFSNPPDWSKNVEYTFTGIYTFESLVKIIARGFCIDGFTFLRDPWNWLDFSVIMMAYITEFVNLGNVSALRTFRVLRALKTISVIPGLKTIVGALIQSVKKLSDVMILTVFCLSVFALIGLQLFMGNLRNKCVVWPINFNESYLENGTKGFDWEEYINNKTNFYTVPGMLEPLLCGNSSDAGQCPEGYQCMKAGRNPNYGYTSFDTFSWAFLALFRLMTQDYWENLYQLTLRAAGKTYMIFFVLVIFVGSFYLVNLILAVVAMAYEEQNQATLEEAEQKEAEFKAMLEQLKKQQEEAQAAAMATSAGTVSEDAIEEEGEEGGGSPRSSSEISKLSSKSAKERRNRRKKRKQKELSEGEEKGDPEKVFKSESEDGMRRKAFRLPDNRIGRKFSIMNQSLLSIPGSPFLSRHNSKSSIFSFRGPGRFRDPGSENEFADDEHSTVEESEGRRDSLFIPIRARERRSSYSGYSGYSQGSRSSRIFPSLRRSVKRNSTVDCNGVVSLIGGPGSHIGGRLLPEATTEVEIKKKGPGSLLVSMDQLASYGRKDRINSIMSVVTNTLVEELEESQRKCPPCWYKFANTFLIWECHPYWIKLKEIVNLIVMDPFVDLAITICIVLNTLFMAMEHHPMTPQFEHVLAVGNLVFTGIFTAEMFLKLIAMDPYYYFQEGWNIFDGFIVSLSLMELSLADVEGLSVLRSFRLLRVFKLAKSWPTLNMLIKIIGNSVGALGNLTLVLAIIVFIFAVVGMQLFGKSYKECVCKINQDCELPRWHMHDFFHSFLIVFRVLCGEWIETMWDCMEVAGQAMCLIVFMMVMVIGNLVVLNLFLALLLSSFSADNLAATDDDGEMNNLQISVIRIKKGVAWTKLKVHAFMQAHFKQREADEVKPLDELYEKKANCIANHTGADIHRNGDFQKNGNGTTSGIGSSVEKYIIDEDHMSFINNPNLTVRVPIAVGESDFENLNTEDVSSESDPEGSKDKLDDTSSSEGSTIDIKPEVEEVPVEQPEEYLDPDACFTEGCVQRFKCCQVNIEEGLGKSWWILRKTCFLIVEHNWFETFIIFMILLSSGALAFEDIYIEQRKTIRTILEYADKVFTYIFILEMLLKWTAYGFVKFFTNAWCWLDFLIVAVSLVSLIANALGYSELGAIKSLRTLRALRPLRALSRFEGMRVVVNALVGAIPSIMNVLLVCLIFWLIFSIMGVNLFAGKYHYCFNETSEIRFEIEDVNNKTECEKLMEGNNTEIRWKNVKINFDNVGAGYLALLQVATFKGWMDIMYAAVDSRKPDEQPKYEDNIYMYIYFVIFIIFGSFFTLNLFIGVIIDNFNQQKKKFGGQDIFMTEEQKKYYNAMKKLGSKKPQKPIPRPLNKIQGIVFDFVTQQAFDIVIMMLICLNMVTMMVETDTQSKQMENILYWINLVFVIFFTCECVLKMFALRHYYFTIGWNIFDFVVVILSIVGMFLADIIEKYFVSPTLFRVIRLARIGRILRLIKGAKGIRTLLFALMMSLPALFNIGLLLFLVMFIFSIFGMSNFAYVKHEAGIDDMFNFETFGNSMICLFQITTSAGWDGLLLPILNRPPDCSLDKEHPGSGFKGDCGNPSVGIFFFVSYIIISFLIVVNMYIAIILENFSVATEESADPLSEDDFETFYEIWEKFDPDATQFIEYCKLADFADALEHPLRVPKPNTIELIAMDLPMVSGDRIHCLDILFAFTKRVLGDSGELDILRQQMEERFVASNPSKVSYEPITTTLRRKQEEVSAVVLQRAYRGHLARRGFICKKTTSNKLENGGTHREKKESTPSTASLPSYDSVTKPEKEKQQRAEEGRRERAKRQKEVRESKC

With CCOC(F)(F)c1nnc2ccc(-c3cnc(OCC(F)(F)F)c(F)c3)cn12 [Compound 3, 3-[ethoxy(difluoro)methyl]-6-[5-fluoro-6-(2,2,2-trifluoroethoxy)-3-pyridyl]-[1,2,4]triazolo[4,3-a]pyridine] the inhibition at 1 µM (hNaV1.1-WT) was over 50%.

For COC(F)(F)c1nnc2cnc(-c3cnc(O[C@@H](C)C(F)(F)F)c(F)c3)cn12 [Compound 6B, 3-[difluoro(methoxy)methyl]-6-[5-fluoro-6-[(1S)-2,2,2-trifluoro-1-methyl-ethoxy]-3-pyridyl]-[1,2,4]triazolo[4,3-a]pyrazine], the inhibition at 1 µM (hNaV1.2-WT) was over 50% and the inhibition at 1 µM (hNaV1.1-WT) was over 50%.

For CCOC(F)(F)c1nnc2cnc(-c3cnc(OCC(F)(F)F)c(F)c3)cn12 [Compound 10], the inhibition at 1 µM (hNaV1.2-WT) was under 50% and the inhibition at 1 µM (hNaV1.1-WT) was over 50%.

Work on COC(F)(F)c1nnc2cnc(-c3cnc(OC4(C(F)(F)F)CCC4)c(F)c3)cn12 [Compound 11, 3-[difluoro(methoxy)methyl]-6-[5-fluoro-6-[1-(trifluoromethyl)cyclobutoxy]-3-pyridyl]-[1,2,4]triazolo[4,3-a]pyrazine] yielded an inhibition at 1 µM (hNaV1.1-WT) of over 50%.

For COC(F)(F)c1nnc2cnc(-c3cnc(OCC(F)(F)F)c(F)c3)cn12 [Compound 53, 3-[difluoro(methoxy)methyl]-6-[5-fluoro-6-(2,2,2-trifluoroethoxy)-3-pyridyl]-[1,2,4]triazolo[4,3-a]pyrazine], the inhibition at 1 µM (hNaV1.2-WT) was under 50% and the inhibition at 1 µM (hNaV1.1-WT) was over 50%.

Work on COC(F)(F)c1nnc2cnc(-c3ccc(OC(C)(C)C(F)(F)F)nc3)cn12 [Compound 56, 3-[difluoro(methoxy)methyl]-6-[6-(2,2,2-trifluoro-1,1-dimethyl-ethoxy)-3-pyridyl]-[1,2,4]triazolo[4,3-a]pyrazine] yielded an inhibition at 1 µM (hNaV1.2-WT) of over 50% and an inhibition at 1 µM (hNaV1.1-WT) of over 50%.

In the case of COC(F)(F)c1nnc2cnc(-c3ccc(OC4(C(F)(F)F)CCC4)nc3)cn12 [Compound 57], the “NaV 1.6 Assay Data (percent inhibition of INaL at hNaV1.6)” value (human NaV1.6 (hNaV1.6)) is reported as “C (“C” indicates inhibition of greater than 70%)”.

Work on COC(F)(F)c1nnc2cnc(-c3ccc(O[C@@H](C)C(F)(F)F)nc3)cn12 [Compound 59, 3-[difluoro(methoxy)methyl]-6-[6-[(1S)-2,2,2-trifluoro-1-methyl-ethoxy]-3-pyridyl]-[1,2,4]triazolo[4,3-a]pyrazine] yielded an inhibition at 1 µM (hNaV1.2-WT) of over 50% and an inhibition at 1 µM (hNaV1.1-WT) of over 50%.

In the case of COC(F)(F)c1nnc2cnc(-c3ccc(O[C@H](C)C(F)(F)F)nc3)cn12 [Compound 62, 3-[difluoro(methoxy)methyl]-6-[6-[(1R)-2,2,2-trifluoro-1-methyl-ethoxy]-3-pyridyl]-[1,2,4]triazolo[4,3-a]pyrazine], the inhibition at 1 µM (hNaV1.2-WT) is reported as over 50% and the inhibition at 1 µM (hNaV1.1-WT) is reported as over 50%.
